Here are results for one compound from patent publication US11932605B1, “9-(4-nitrobenzylidene)-4-(4-nitrophenyl)-3-cyano-2-methoxy-6,7,8,9-tetrahydro-5h-cyclohepta[b]pyridine as an antimicrobial compound” (KING FAISAL UNIVERSITY, priority 2023, dated 2024).

In one data set the test system is Staphylococcus aureus. As to the kind of experiment: Antimicrobial testing by agar dilution, Staphylococcus aureus. The data set is classed as cell-based. Particulars: after 10, 20, 40 and 60 min at all dilutions 1:100, 1:200, 1:400, 1:800. Here is the method: (§1) The antimicrobial properties of the 9-(4-Nitrobenzylidene)-4-(4-nitrophenyl)-3-cyano-2-methoxy-6,7,8,9-tetrahydro-5H-cyclohepta[b]pyridine was studied by the method of agar dilution. Test solutions of each compound was prepared in concentration of 1% using dimethylformamide as a solvent then they are diluted in physiological solution to obtain the final experimental dilutions 1:100, 1:200, 1:400, 1:800. The effect of these substances are compared with furacillin in a controllable study. The testing microbes used were gram positive bacteria Staphylococcus aureus, gram negative bacteria Pseudomonas aeruginosa, Escherichia coli and Candida albicans fungi were taken.
(§2) The experiments used for this survey were meat-pentonlu agar (EPA) for cultivation of bacteria and Saburo environment for fungi. Each experiment used 1 mL of test solution on each plate 500 min. Add 2 drops of emulsified with microbes feel. All experimental samples were taken from the agar after 10, 20, 40, 60 minutes in the environment on the basis of Patrk planted. Bacteria were cultivated at a temperature of 37° C. for 1 day and the mushroom was kept in a thermostat for […] at a temperature of 28° C. Then the results were checked.
In general terms: In agar dilution, organisms are placed on agar that contains the substance at set levels.

Another data set has as its system Escherichia coli. The data set can be described thus: Antimicrobial testing by agar dilution, Escherichia coli. In kind it is cell-based. Particulars: after 10, 20, 40 and 60 min at all dilutions 1:100, 1:200, 1:400, 1:800. The method, then:
as §1, §2

The test system of the next data set is Pseudomonas aeruginosa. As to the kind of experiment: Antimicrobial testing by agar dilution, Pseudomonas aeruginosa. In kind it is cell-based. The settings on record: after 10, 20, 40 and 60 min at all dilutions 1:100, 1:200, 1:400, 1:800. The method, then: as §1, §2
A further data set deals with Candida albicans. The data set can be described thus: Antimicrobial testing by agar dilution, Candida albicans. In kind it is cell-based. Particulars: after 10, 20, 40 and 60 min at all dilutions 1:100, 1:200, 1:400, 1:800. The method, then: as §1, §2

For the compound `COc1nc2c(c(-c3ccc([N+](=O)[O-])cc3)c1C#N)CCCC/C2=C\c1ccc([N+](=O)[O-])cc1` [9-(4-nitrobenzylidene)-4-(4-nitrophenyl)-3-cyano-2-methoxy-6,7,8,9-tetrahydro-5H-cyclohepta[b]pyridine], the melting point – broadly, the temperature, or range, at which the solid turns liquid – was in the range of 133 to 135 °C. The inhibition activity entry in the data set with Staphylococcus aureus is “most higher inhibition activity”. In addition, the inhibition activity entry in the data set on Escherichia coli is “most higher inhibition activity”. Further, the inhibition activity result in the data set with Pseudomonas aeruginosa was “most higher inhibition activity”. In addition, in the data set on Candida albicans, the inhibition activity entry was “most higher inhibition activity”.
